PubChem BioAssay (NCI)
Values joined by “and” are separate entries in the source; they are usually repeats but may differ in a detail not shown here. Identical values can stand only once.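 Tested at 5 concentrations; 48 h exposure; 96-well plates; endpoints linearly interpolated, else capped at highest concentration. GI50 = concentration required for 50% inhibition of growth. TGI is the concentration that stops growth completely.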

Columns and labels:
Assay in all cases: NCI anticancer screen, dose series, 48 h
A498 renal = tested on: A498 renal
CCRF-CEM leukemia = tested on: CCRF-CEM leukemia
HCT-15 colon = tested on: HCT-15 colon
M14 melanoma = tested on: M14 melanoma
OVCAR-3 ovarian = tested on: OVCAR-3 ovarian
RXF 393 renal = tested on: RXF 393 renal
SF-268 CNS = tested on: SF-268 CNS
SNB-19 CNS = tested on: SNB-19 CNS
T-47D breast = tested on: T-47D breast
UACC-257 melanoma = tested on: UACC-257 melanoma

Compound | TGI (A498 renal) | TGI (CCRF-CEM leukemia) | TGI (HCT-15 colon) | TGI (M14 melanoma) | TGI (OVCAR-3 ovarian) | TGI (RXF 393 renal) | TGI (SF-268 CNS) | TGI (SNB-19 CNS) | TGI (T-47D breast) | TGI (UACC-257 melanoma) | GI50 (A498 renal) | GI50 (HCT-15 colon) | GI50 (M14 melanoma) | GI50 (OVCAR-3 ovarian) | GI50 (RXF 393 renal) | GI50 (SF-268 CNS) | GI50 (SNB-19 CNS) | GI50 (T-47D breast) | GI50 (UACC-257 melanoma) | GI50 (CCRF-CEM leukemia)
Cc1nc2ccccc2nc1-c1ccc(N=[N+]([O-])c2ccc(-c3nc4ccccc4nc3C)cc2)cc1 | > 89 µM | > 100 µM | > 100 µM | > 100 µM | > 100 µM | > 95.1 µM | > 100 µM | > 100 µM | > 100 µM | > 100 µM | – | – | – | – | – | – | – | – | – | –
CCN1CCN=c2c3cc(OC)ccc3n3cnc4ccc1c2c43 | 0.735 µM | 0.747 µM | 0.432 µM | 1.04 µM | 0.525 µM | 1.05 µM | 4.69 µM | 1.95 µM | 3.06 µM | 2.05 µM | – | – | – | – | – | – | – | – | – | –
COc1cc(-c2nn(-c3cccc(NC(=O)Nc4ccc(Cl)c(Cl)c4)c3)cc2-c2ccncc2)ccc1Cl | 4.59 µM | – | > 50 µM | 2.69 µM | 2.27 µM | 2.44 µM | 20.3 µM | > 50 µM | > 50 µM | 3.11 µM | 1.14 µM | 1.23 µM | 0.911 µM | 0.697 µM | 0.859 µM | 1.51 µM | 1.72 µM | 1.42 µM | 1.04 µM | –
O=c1cc2oc3cc(O)c(O)cc3c(-c3ccccc3O)c-2cc1O | 8.36 µM | > 100 µM | > 100 µM | 32.1 µM | > 100 µM | > 100 µM | > 100 µM | > 100 µM | > 100 µM | > 100 µM | 1.44 µM | 38.3 µM | 6.66 µM | 9.41 µM | 6.5 µM | 5.53 µM | 9.65 µM | 9.51 µM | 20.4 µM | 7.29 µM
Cc1nc2cnc(N)c(C#Cc3cncc(C(=O)Nc4ccc(CN5CCN(C)CC5)c(C(F)(F)F)c4)c3)c2nc1C | 1.17 µM | 16.7 µM | 10.9 µM | 0.339 µM | 9.66 µM | 1.93 µM | 10.3 µM | 16.9 µM | 26 µM | 1.74 µM | 0.18 µM | 0.912 µM | 0.0903 µM | 0.824 µM | 0.515 µM | 0.64 µM | 4.36 µM | 3.35 µM | 0.189 µM | 2.12 µM
N=c1ccn2c(n1)OC1C(O)C(CO)OC12 (stereo not given) | > 1000 µM | 92.2 µM | > 1000 µM | – | > 1000 µM | > 1000 µM | > 619 µM | > 480 µM | > 1000 µM | > 1000 µM | 66.3 µM | – | 0.228 µM | 163 µM and 99.6 µM | > 25.1 µM | 2.41 µM | – | 16.8 µM | > 100 µM | 0.102 µM and 0.0335 µM
O=C(c1ccc(F)c(F)c1Nc1ccc(I)cc1F)N1CC(O)([C@@H]2CCCCN2)C1 | 0.134 µM and 0.294 µM | 26.7 µM and > 10 µM | 16.8 µM and > 10 µM | 0.205 µM and 0.0436 µM | 22.8 µM and > 10 µM | 7.17 µM and > 6.97 µM | 20.6 µM and > 10 µM | 21.1 µM and > 10 µM | 23.1 µM and > 10 µM | 0.0368 µM and 0.0363 µM | < 0.0194 µM and 0.0422 µM | 1.22 µM and 1.92 µM | < 0.01 µM and 0.00283 µM | 9.85 µM and > 10 µM | 0.743 µM and 0.396 µM | 5.02 µM and 4.94 µM | 1.59 µM and 0.56 µM | 9.05 µM and > 10 µM | < 0.01 µM and 0.00413 µM | 10.2 µM and > 10 µM
COc1c(OC)c(OC)c(C(=O)/C=C/c2ccccc2)c(OC)c1OC | 17.5 µM | 18.1 µM | 23 µM | 36.7 µM | 25.1 µM | – | 22.1 µM | 25.1 µM | 23.7 µM | 34.3 µM | – | – | – | – | – | – | – | – | – | –
C=CCCCCCCCCCCC1(O)C=CC2=[N+](CCCCCN=C(N)N)CCCN21 (stereo not given) | – | 40.3 µM | 18.6 µM | > 51.5 µM | 36.8 µM | 19.3 µM | 26.7 µM | 30.4 µM | 55.6 µM | > 55.7 µM | – | 4.87 µM | 22.8 µM | 13 µM | 3.19 µM | 7.7 µM | 5.86 µM | 22 µM | 22.7 µM | 8.57 µM
Oc1cc(O)c2c(c1)OC(c1ccc(O)c(O)c1)C(OC1(c3cc(O)c(O)c(O)c3)Oc3cc(O)cc(O)c3C(O)C1O)C2 (stereo not given) | > 49.9 µM | 43.7 µM | > 100 µM | > 65.6 µM | > 80 µM | > 100 µM | 66.2 µM | > 100 µM | > 100 µM | > 100 µM | – | – | – | – | – | – | – | – | – | –
C1CSCCSCCS1 | – | > 100 µM | > 100 µM | > 100 µM | > 100 µM | > 100 µM | > 100 µM | > 100 µM | > 100 µM | > 100 µM | – | – | – | – | – | – | – | – | – | –
Cc1cn2c(/C=C3\C(=O)Nc4ccc(O)cc43)c(-c3ccc(Cl)cc3)nc2s1 | 38.8 µM | > 100 µM | > 100 µM | > 100 µM | 38.3 µM | – | 54.5 µM | 39.1 µM | 30.2 µM | > 100 µM | 16.8 µM | 21.4 µM | 17 µM | 16.9 µM | – | 15.2 µM | 15.2 µM | 8.96 µM | 21.3 µM | 29.4 µM
Cc1ccc(Cl)cc1Nc1nc(C(F)(F)F)ccc1C(=O)N1CCN(c2cccc(Cl)c2)CC1 | > 100 µM | > 100 µM | > 100 µM | > 100 µM | > 100 µM | – | > 100 µM | > 100 µM | > 100 µM | > 100 µM | 65.6 µM | > 100 µM | > 100 µM | 8.27 µM | – | > 100 µM | > 100 µM | 37.6 µM | > 100 µM | > 100 µM
COc1ccc2[nH]cc(-c3nc(-c4c[nH]c5ncccc45)cs3)c2c1 | > 100 µM | > 100 µM | > 100 µM | > 100 µM | > 100 µM | – | > 100 µM | – | > 100 µM | – | 1.16 µM | 2.61 µM | 2.99 µM | 6.04 µM | – | 6.66 µM | – | 6.47 µM | – | 4.07 µM
Cc1ccc(-c2nc3ccc([N+](=O)[O-])cc3[nH]2)cc1 | – | > 100 µM | > 100 µM | > 100 µM | > 100 µM | > 100 µM | > 100 µM | > 100 µM | > 100 µM | > 100 µM | – | – | – | – | – | – | – | – | – | –
